In ChEMBL document CHEMBL1127142, “Novel conversion reaction of -lactam to -lactam. Synthesis of -lactam analogs of penam and penem antibiotics” (Bioorg Med Chem Lett, 1993):
Active and inactive are the calls of the source. The rule behind the calls is not given here.

Experiments:
[1] = system: Bacteria; assay: Activity of compound tested against Gram negative bacteria at concentration of 100 ug/ml; Inactive; format: functional, organism-based
[2] = Activity of compound tested against Gram positive bacteria at concentration of 100 ug/ml; Inactive; format: functional

Row | SMILES | Activity [1] | Activity [2]
1 | O=C(O)C1=C(C2CCCO2)S[C@@H]2[C@@H](C(=O)O)CC(=O)N12 (stereo partly drawn) | inactive | inactive
2 | O=C(O)C1=C([C@H]2CCCO2)S[C@@H]2[C@H](C(=O)O)CC(=O)N12 | inactive | inactive
3 | O=C(O)C1=C([C@H]2CCCO2)S[C@@H]2[C@@H](C(=O)NCc3ccccc3)CC(=O)N12 | inactive | inactive
4 | CC1(C)S[C@@H]2[C@@H](C(=O)NCc3ccccc3)CC(=O)N2[C@H]1C(=O)O | inactive | inactive
